Test results as given in patent publication US20230226061A1, “COMBINATION CANCER THERAPY WITH DYRK1 INHIBITORS AND INHIBITORS OF THE RAS-RAF-MEK-ERK (MAPK) PATHWAY” (Felicitex Therapuetics, Inc., priority 2022, published 2023).
Read-outs that look alike come from different tables or passages of the source.

What was measured:
[1] = test system: colon cancer SW620 cells (G12V); assay: FACS analysis of cell cycle distribution (acridine orange), SW620; format: cell-based; settings: SW620, 5 μM Compound I-7 and 20 nM trametinib, 24 hours
Experimental: SW620 cells were cultured, treated, and analyzed as described in Example 1. The results when different concentrations of trametinib, Compound I-7, or both trametinib and Compound I-7 are present are shown in FIG. 10.

[2] = test system: H2122 NSCLC cells (KRAS G12C); assay: FACS analysis of cell cycle distribution (acridine orange), H2122; format: cell-based
[3] = test system: DYRK1B, MAPK, p27 in SW620 cells; assay: Western blot analysis of protein expression in SW620 cells; format: cell-based; settings: SW620, 20 nM trametinib and 5 μM compound I-7, vs trametinib alone
Experimental: For Western Blot analysis cells were seeded into 6-well plates at 5×10^5-9×10^5 cells/well (depending on the cell size and rate of proliferation), allowed to attach for 24 hours, then treated with compounds for 24 hours, and harvested. Immunoblotting was performed using conventional techniques, as described in Cell Signaling Technologies Western Blotting protocol (www.cellsignal.com).
Antibodies used for blotting were from Cell Signaling Technology (CST): DYRK1B (D40D1) Rabbit mAb #5672; β-Actin (13E5) Rabbit mAb #4970; Anti-rabbit IgG, HIRP-linked Antibody #7074. The Primary Antibody Dilution Buffer 1×TBST with 5% BSA (CST #9998) was used. For detection, SignalFire™ ECL Reagent (CST #6883) was used.
The expression levels of DYRK1B, ph-t202 MAPK, total MAPK, ph-S10 p27, total p27 and β-actin in SW620 cells following the 24 hours treatment with trametinib or combination of trametinib and compound I-7 as observed by Western blot analysis are shown in FIG. 13. The expression of DYRK1B protein was compared to that in untreated cells incubated in regular growth medium containing FBS (FBS+) or serum free medium (FBS−), single treatment with trametinib to the treatment with combination of trametinib and compound I-7.

[4] = test system: NSCLC H23 cells (KRAS-G12C); assay: Cell viability assay in 2D cell culture (CellTiter-Glo), H23; settings: for EC50: Homo sapiens, NCI-H23, 96 h
[5] = test system: NSCLC A549 cells (KRAS-G12S); assay: Cell viability assay in 2D cell culture (CellTiter-Glo), A549; settings: for EC50: A549, 96 h
[6] = test system: NSCLC H2122 cells (KRAS-G12C); assay: Cell viability assay in 2D cell culture (CellTiter-Glo), H2122
[7] = test system: ovarian cancer OVCAR cells (wild KRAS); assay: Cell viability assay in 2D cell culture (CellTiter-Glo), OVCAR; format: cell-based; settings: for EC50: 96 h
[8] = test system: NSCLC H1975 cells (wild-type KRAS); assay: Cell viability assay in 2D cell culture (CellTiter-Glo), H1975; format: cell-based; settings: for EC50: Homo sapiens, NCI-H1975, 96 h, H1975, 96 h
[9] = test system: NSCLC H358 cells (KRAS-G12C); assay: Cell viability assay in 2D cell culture (CellTiter-Glo), H358
[10] = test system: quiescent and proliferating pancreatic cancer cells; settings: reported by Ewton et al. 2011; cited from earlier work
[11] = test system: 3D spheroids of NSCLC H23 cells (KRAS-G12C); assay: Cell viability assay in 3D cell culture (spheroids), H23; format: cell-based; settings: Homo sapiens, NCI-H23, H23 3D spheroids, read-out: EC50 for trametinib
Experimental: (§1) For the treatment, 50 μL of media was removed from each well and replaced with fresh media with compounds. […] If the treatment time exceeded 4 days, 70 μL of media in each well was replaced with fresh media containing the test compound every fourth day. Each treatment was performed in duplicate. […] Prior to analysis, the spheroids were photographed at 50× magnification.
as §1, with “magnification” for “magnification.”

[12] = H2122, 5 μM Compound I-7 and 100 nM AMG-510, FBS+
[13] = H2122, 5 μM Compound I-7 and 100 nM MRTX 849, 48 hours

CCOC(=N)c1nc2ccc3ncnc(Nc4cc(F)c(F)cc4Cl)c3c2s1 [Compound I-7]
apoptotic cells (sub-G0 population) [1]: significant increases in apoptotic cells | fraction of cells in G0 ([1]; vs trametinib alone): reduced the fraction of cells in G0 | apoptotic cells (sub-G0 fraction) [2, 12]: large increase in apoptotic cells | proportion of quiescent cells [2, 12]: no such increase in proportion of quiescent cells was observed | apoptotic cells (sub-G0 population) [2, 13]: significant increases in apoptotic cells | fraction of cells in G0 [2, 13]: reduced the fraction of cells in G0 | phosphorylation of p27 (Western blot) [3]: decrease of the phosphorylation of p27 | total levels of p27 (Western blot) [3]: decrease | effect of combination on cytotoxicity ([4]; H23, combined with trametinib): synergistic | effect of combination on cytotoxicity of selumetinib ([5]; A549, combined with selumetinib): significant increase in cytotoxicity | effect of combination on cytotoxicity ([5]; A549, combined with trametinib): synergistic | effect of combination on cytotoxicity ([6]; H2122, combined with AMG-510): synergistic | effect of combination on cytotoxicity ([6]; H2122, combined with MRTX-849): synergistic

c1cncc(-c2ccnc3ccc(-c4c[nH]c5ncccc45)cc23)c1 [Compound II-1]
effect of combination on cytotoxicity ([7]; combined with selumetinib): synergistic effect | effect of combination on cytotoxicity ([8]; H1975, combined with selumetinib): synergistic effect | effect of combination on cytotoxicity ([9]; H358, combined with AMG-510): synergistic | effect of combination on cytotoxicity ([9]; H358, combined with MRTX-849): synergistic

COc1ncc2cc(C(=O)Nc3cc(C(=O)NCc4cccc(Cl)c4)ccc3Cl)c(=O)[nH]c2n1 [TC-S 7004]
effectiveness against quiescent and proliferating cancer cells in vitro [10]: effective against both quiescent and proliferating cancer cells

Cn1cnc2c(F)c(Nc3ccc(Br)cc3Cl)c(C(=O)NOCCO)cc21 [selumetinib]
EC50 ([7]; Compound I-7 not present, highest selumetinib concentration 50 μM): 238000 nM | EC50 ([7]; Compound I-7 present at 1 μM, read-out: EC50 for selumetinib): 173000 nM | EC50 ([7]; Compound I-7 present, read-out: EC50 for selumetinib): < 100 nM | EC50 ([8]; Compound II-1 not present, highest selumetinib concentration 20 μM): 59000 nM | EC50 ([8]; Compound II-1 present at 1 μM, read-out: EC50 for selumetinib): 130 nM | EC50 ([5]; read-out: EC50 for selumetinib, Compound I-7 not present): 2350 nM | EC50 ([5]; read-out: EC50 for selumetinib, Compound I-7 present at 3 μM): 920 nM | EC50 ([5]; read-out: EC50 for selumetinib, Compound I-7 present at 6 μM): 10 nM

CC(=O)Nc1cccc(-n2c(=O)n(C3CC3)c(=O)c3c(Nc4ccc(I)cc4F)n(C)c(=O)c(C)c32)c1 [trametinib]
EC50 ([11]; Compound I-7 not present): 1.7 nM | EC50 ([11]; Compound I-7 present at 5 μM): 1.2 nM | EC50 ([11]; Compound I-7 present at 10 μM): < 0.01 nM | EC50 ([4]; read-out: EC50 for trametinib, H23 2D, 96 h, Compound I-7 not present): 19.2 nM | EC50 ([4]; read-out: EC50 for trametinib, H23 2D, 96 h, Compound I-7 present at 0.12 μM): 15.5 nM | EC50 ([4]; read-out: EC50 for trametinib, H23 2D, 96 h, Compound I-7 present at 3.3 μM): 11.8 nM | EC50 ([5]; read-out: EC50 for trametinib, Compound I-7 not present): 16.2 nM | EC50 ([5]; read-out: EC50 for trametinib, Compound I-7 present at 2.2 μM): 16 nM | EC50 ([5]; read-out: EC50 for trametinib, Compound I-7 present at 6.73 μM): 3.2 nM
